This passage reports IC50 results from patent US20250213555A1, “SUBSTITUTED TETRAHYDROFURAN ANALOGS AS MODULATORS OF SODIUM CHANNELS” (VERTEX PHARMACEUTICALS INCORPORATED, priority 2021, published 2025).

Each structure is given as a SMILES string.

The term IC50 denotes the concentration that gives 50% inhibition.

human Nav 1.8, sequence (Q9Y5Y9 126-399 limits assumed): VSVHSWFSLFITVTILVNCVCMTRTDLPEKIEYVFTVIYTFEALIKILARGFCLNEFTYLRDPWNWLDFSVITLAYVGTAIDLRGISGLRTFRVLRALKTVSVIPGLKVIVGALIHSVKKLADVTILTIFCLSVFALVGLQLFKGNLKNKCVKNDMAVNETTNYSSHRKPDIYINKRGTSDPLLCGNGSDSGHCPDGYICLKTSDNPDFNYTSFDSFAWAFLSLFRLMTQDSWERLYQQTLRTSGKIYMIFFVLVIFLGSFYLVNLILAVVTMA
human Nav 1.8, sequence (Q9Y5Y9 660-890 limits assumed): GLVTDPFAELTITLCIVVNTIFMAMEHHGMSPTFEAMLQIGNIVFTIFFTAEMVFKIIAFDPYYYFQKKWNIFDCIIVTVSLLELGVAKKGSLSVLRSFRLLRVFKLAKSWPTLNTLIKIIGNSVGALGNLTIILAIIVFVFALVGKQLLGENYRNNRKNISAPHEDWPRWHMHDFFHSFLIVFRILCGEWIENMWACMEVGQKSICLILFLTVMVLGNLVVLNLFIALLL
human Nav 1.8, sequence (Q9Y5Y9 1148-1722 limits assumed): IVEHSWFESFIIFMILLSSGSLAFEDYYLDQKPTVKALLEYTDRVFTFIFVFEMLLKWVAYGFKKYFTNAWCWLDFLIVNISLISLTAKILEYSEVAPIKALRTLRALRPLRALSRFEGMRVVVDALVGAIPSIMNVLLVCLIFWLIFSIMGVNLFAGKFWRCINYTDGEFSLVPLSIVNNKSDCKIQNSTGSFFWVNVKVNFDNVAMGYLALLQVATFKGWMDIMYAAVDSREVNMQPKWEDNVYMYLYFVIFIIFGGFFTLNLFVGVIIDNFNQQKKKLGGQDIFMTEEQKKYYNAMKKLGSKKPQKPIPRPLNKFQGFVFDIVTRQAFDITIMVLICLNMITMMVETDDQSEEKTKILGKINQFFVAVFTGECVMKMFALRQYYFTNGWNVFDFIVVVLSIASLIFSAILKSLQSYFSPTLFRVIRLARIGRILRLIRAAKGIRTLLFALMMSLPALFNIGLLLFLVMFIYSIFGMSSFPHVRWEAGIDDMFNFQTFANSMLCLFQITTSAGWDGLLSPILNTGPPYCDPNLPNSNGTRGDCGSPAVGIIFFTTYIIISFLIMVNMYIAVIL

The experiment addresses human Nav 1.8 (Homo sapiens, UniProt Q9Y5Y9). The experiment is described as follows: E-VIPR assay detecting and measuring Nav inhibition properties. The class given is cell-based. To be noted: HEK cells expressing a truncated form of human Nav 1.8; compound numbers without "*" (not marked as run in the presence of human serum); read-out: measured IC50 value in the E-VIPR Assay. Put shortly: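 Nav inhibition was read by E-VIPR: cells were electrically stimulated while coumarin/oxonol FRET emissions were recorded. Cells were HEK expressing a truncated human Nav 1.8 and co-transduced with KIR2.1, and were assayed in 25% final human serum.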
With `C=C(COc1c([C@H]2[C@H](C(=O)Nc3ccnc(C(N)=O)c3)O[C@@](C)(C(F)(F)F)[C@H]2C)ccc(F)c1F)C(F)(F)F` [Compound 75, 4-((2R,3S,4S,5R)-3-(3,4-difluoro-2-((2-(trifluoromethyl)allyl)oxy)phenyl)-4,5-dimethyl-5-(trifluoromethyl)tetrahydrofuran-2-carboxamido)picolinamide], the IC50 was under 10 nM.
Take `C[C@H]1[C@@H](c2ccc(F)c(F)c2OCCCC#N)[C@H](C(=O)Nc2ccnc(C(N)=O)c2)O[C@@]1(C)C(F)(F)F` [Compound 76, 4-((2R,3S,4S,5R)-3-(2-(3-cyanopropoxy)-3,4-difluorophenyl)-4,5-dimethyl-5-(trifluoromethyl)tetrahydrofuran-2-carboxamido)picolinamide]: the IC50 is under 10 nM.
To `C[C@H]1[C@@H](c2ccc(F)c(F)c2OCCC2(C#N)CC2)[C@H](C(=O)Nc2ccnc(C(N)=O)c2)O[C@@]1(C)C(F)(F)F` [Compound 77, 4-((2R,3S,4S,5R)-3-(2-(2-(1-cyanocyclopropyl)ethoxy)-3,4-difluorophenyl)-4,5-dimethyl-5-(trifluoromethyl)tetrahydrofuran-2-carboxamido)picolinamide] belongs under 10 nM.
Consider `COCC(COc1c([C@H]2[C@H](C(=O)Nc3ccnc(C(N)=O)c3)O[C@@](C)(C(F)(F)F)[C@H]2C)ccc(F)c1F)OC` (stereo partly drawn) [Compound 78, 4-((2R,3S,4S,5R)-3-(2-(2,3-dimethoxypropoxy)-3,4-difluorophenyl)-4,5-dimethyl-5-(trifluoromethyl)tetrahydrofuran-2-carboxamido)picolinamide], for which the IC50 is under 10 nM.
The figure for `CC(=O)COc1c([C@H]2[C@H](C(=O)Nc3ccnc(C(N)=O)c3)O[C@@](C)(C(F)(F)F)[C@H]2C)ccc(F)c1F` [Compound 79, 4-((2R,3S,4S,5R)-3-(3,4-difluoro-2-(2-oxopropoxy)phenyl)-4,5-dimethyl-5-(trifluoromethyl)tetrahydrofuran-2-carboxamido)picolinamide] is 10 to 100 nM; for `C[C@H]1[C@@H](c2ccc(F)c(F)c2OC2CC(C#N)C2)[C@H](C(=O)Nc2ccnc(C(N)=O)c2)O[C@@]1(C)C(F)(F)F` (stereo partly drawn) [Compound 80, 4-((2R,3S,4S,5R)-3-(2-(3-cyanocyclobutoxy)-3,4-difluorophenyl)-4,5-dimethyl-5-(trifluoromethyl)tetrahydrofuran-2-carboxamido)picolinamide] it is under 10 nM.
To `C[C@@H](CO)COc1c([C@H]2[C@H](C(=O)Nc3ccnc(C(N)=O)c3)O[C@@](C)(C(F)(F)F)[C@H]2C)ccc(F)c1F` [Compound 81, 4-((2R,3S,4S,5R)-3-(3,4-difluoro-2-((S)-3-hydroxy-2-methylpropoxy)phenyl)-4,5-dimethyl-5-(trifluoromethyl)tetrahydrofuran-2-carboxamido)picolinamide] belongs under 10 nM.
The figure for `C[C@H](CO)COc1c([C@H]2[C@H](C(=O)Nc3ccnc(C(N)=O)c3)O[C@@](C)(C(F)(F)F)[C@H]2C)ccc(F)c1F` [Compound 82, 4-((2R,3S,4S,5R)-3-(3,4-difluoro-2-((R)-3-hydroxy-2-methylpropoxy)phenyl)-4,5-dimethyl-5-(trifluoromethyl)tetrahydrofuran-2-carboxamido)picolinamide] is under 10 nM; for `C[C@H]1[C@@H](c2ccc(F)c(F)c2OCc2cc[nH]n2)[C@H](C(=O)Nc2ccnc(C(N)=O)c2)O[C@@]1(C)C(F)(F)F` [Compound 83, 4-((2R,3S,4S,5R)-3-(2-((1H-pyrazol-3-yl)methoxy)-3,4-difluorophenyl)-4,5-dimethyl-5-(trifluoromethyl)tetrahydrofuran-2-carboxamido)picolinamide] it is under 10 nM; for `CNC(=O)c1cc(NC(=O)[C@@H]2O[C@@](C)(C(F)(F)F)[C@@H](C)[C@H]2c2ccc(F)c(F)c2OCCO)cc[n+]1[O-]` [Compound 84, 4-((2R,3S,4S,5R)-3-(3,4-difluoro-2-(2-hydroxyethoxy)phenyl)-4,5-dimethyl-5-(trifluoromethyl)tetrahydrofuran-2-carboxamido)-2-(methylcarbamoyl)pyridine 1-oxide] it is 10 to 100 nM.
Turning to `C[C@H]1[C@@H](c2ccc(F)c(F)c2OCCc2cn(C)cn2)[C@H](C(=O)Nc2ccnc(C(N)=O)c2)O[C@@]1(C)C(F)(F)F` [Compound 85, 4-((2R,3S,4S,5R)-3-(3,4-difluoro-2-(2-(1-methyl-1H-imidazol-4-yl)ethoxy)phenyl)-4,5-dimethyl-5-(trifluoromethyl)tetrahydrofuran-2-carboxamido) picolinamide], the IC50 was under 10 nM.
Take `C[C@H]1[C@@H](c2ccc(F)c(F)c2OCCc2cncn2C)[C@H](C(=O)Nc2ccnc(C(N)=O)c2)O[C@@]1(C)C(F)(F)F` [Compound 86, 4-((2R,3S,4S,5R)-3-(3,4-difluoro-2-(2-(1-methyl-1H-imidazol-5-yl)ethoxy)phenyl)-4,5-dimethyl-5-(trifluoromethyl)tetrahydrofuran-2-carboxamido)picolinamide]: the IC50 was under 10 nM.
To `C[C@H]1[C@@H](c2ccc(F)c(F)c2OCCc2nccn2C)[C@H](C(=O)Nc2ccnc(C(N)=O)c2)O[C@@]1(C)C(F)(F)F` [Compound 87, 4-((2R,3S,4S,5R)-3-(3,4-difluoro-2-(2-(1-methyl-1H-imidazol-2-yl)ethoxy)phenyl)-4,5-dimethyl-5-(trifluoromethyl)tetrahydrofuran-2-carboxamido)picolinamide] belongs 10 to 100 nM; to `C[C@H]1[C@@H](c2ccc(F)c(F)c2OCc2cn(C)cn2)[C@H](C(=O)Nc2ccnc(C(N)=O)c2)O[C@@]1(C)C(F)(F)F` [Compound 88, 4-((2R,3S,4S,5R)-3-(3,4-difluoro-2-((1-methyl-1H-imidazol-4-yl)methoxy)phenyl)-4,5-dimethyl-5-(trifluoromethyl)tetrahydrofuran-2-carboxamido)picolinamide], under 10 nM; to `C[C@H]1[C@@H](c2ccc(F)c(F)c2OCc2cncn2C)[C@H](C(=O)Nc2ccnc(C(N)=O)c2)O[C@@]1(C)C(F)(F)F` [Compound 89, 4-((2R,3S,4S,5R)-3-(3,4-difluoro-2-((1-methyl-1H-imidazol-5-yl)methoxy)phenyl)-4,5-dimethyl-5-(trifluoromethyl)tetrahydrofuran-2-carboxamido)picolinamide], under 10 nM.
The figure for `CC(CO)COc1c([C@H]2[C@H](C(=O)Nc3ccnc(C(N)=O)c3)O[C@@](C)(C(F)(F)F)[C@H]2C)ccc(F)c1F` (stereo partly drawn) [Compound 90, 4-((2R,3S,4S,5R)-3-(3,4-difluoro-2-(3-hydroxy-2-methylpropoxy)phenyl)-4,5-dimethyl-5-(trifluoromethyl)tetrahydrofuran-2-carboxamido)picolinamide] is under 10 nM.
To `C[C@H]1[C@@H](c2ccc(F)c(F)c2OCC(CO)CO)[C@H](C(=O)Nc2ccnc(C(N)=O)c2)O[C@@]1(C)C(F)(F)F` [Compound 91, 4-((2R,3S,4S,5R)-3-(3,4-difluoro-2-(3-hydroxy-2-(hydroxymethyl)propoxy)phenyl)-4,5-dimethyl-5-(trifluoromethyl)tetrahydrofuran-2-carboxamido)picolinamide] belongs 100 to 1000 nM; to `C[C@H]1[C@@H](c2ccc(F)c(F)c2OCC2(CO)COC2)[C@H](C(=O)Nc2ccnc(C(N)=O)c2)O[C@@]1(C)C(F)(F)F` [Compound 94, 4-((2R,3S,4S,5R)-3-(3,4-difluoro-2-((3-(hydroxymethyl)oxetan-3-yl)methoxy)phenyl)-4,5-dimethyl-5-(trifluoromethyl)tetrahydrofuran-2-carboxamido)picolinamide], 100 to 1000 nM.
For the compound `C[C@H]1[C@@H](c2ccc(F)c(F)c2OCC2(CO)CC2)[C@H](C(=O)Nc2ccnc(C(N)=O)c2)O[C@@]1(C)C(F)(F)F` [Compound 95, 4-((2R,3S,4S,5R)-3-(3,4-difluoro-2-((1-(hydroxymethyl)cyclopropyl)methoxy)phenyl)-4,5-dimethyl-5-(trifluoromethyl)tetrahydrofuran-2-carboxamido)picolinamide], the IC50 is under 10 nM.
The figure for `CNC(=O)COc1c([C@H]2[C@H](C(=O)Nc3ccnc(C(N)=O)c3)O[C@@](C)(C(F)(F)F)[C@H]2C)ccc(F)c1F` [Compound 96, 4-((2R,3S,4S,5R)-3-(3,4-difluoro-2-(2-(methylamino)-2-oxoethoxy)phenyl)-4,5-dimethyl-5-(trifluoromethyl)tetrahydrofuran-2-carboxamido)picolinamide] is 10 to 100 nM; for `C[C@H]1[C@@H](c2ccc(F)c(F)c2OCC2(CO)CCC2)[C@H](C(=O)Nc2ccnc(C(N)=O)c2)O[C@@]1(C)C(F)(F)F` [Compound 97, 4-((2R,3S,4S,5R)-3-(3,4-difluoro-2-((1-(hydroxymethyl)cyclobutyl)methoxy)phenyl)-4,5-dimethyl-5-(trifluoromethyl)tetrahydrofuran-2-carboxamido)picolinamide] it is 10 to 100 nM.
The figure for `CC1C(c2ccc(F)c(F)c2OCC2CCC2O)C(C(=O)Nc2ccnc(C(N)=O)c2)OC1(C)C(F)(F)F` [Compound 98, rel-4-((2R*,3S*,4S*,5R*)-3-(3,4-difluoro-2-(((15,2S)-2-hydroxycyclobutyl)methoxy)phenyl)-4,5-dimethyl-5-(trifluoromethyl)tetrahydrofuran-2-carboxamido)picolinamide] is 10 to 100 nM; for `C[C@H]1[C@@H](c2ccc(F)c(F)c2OCCC(C)(C)O)[C@H](C(=O)Nc2ccnc(C(N)=O)c2)O[C@@]1(C)C(F)(F)F` [Compound 100, 4-((2R,3S,4S,5R)-3-(3,4-difluoro-2-(3-hydroxy-3-methylbutoxy)phenyl)-4,5-dimethyl-5-(trifluoromethyl)tetrahydrofuran-2-carboxamido)picolinamide] it is 10 to 100 nM; for `C[C@H]1[C@@H](c2ccc(F)c(F)c2OC2CN(C)C2)[C@H](C(=O)Nc2ccnc(C(N)=O)c2)O[C@@]1(C)C(F)(F)F` [Compound 101, 4-((2R,3S,4S,5R)-3-(3,4-difluoro-2-((1-methylazetidin-3-yl)oxy)phenyl)-4,5-dimethyl-5-(trifluoromethyl)tetrahydrofuran-2-carboxamido) picolinamide] it is 10 to 100 nM.
